Laboratory results as given in patent US20110207726A1, “Inhibitors of Human Cathepsin L, Cathepsin B, and Cathepsin S” (The Trustees of the University of Pennsylvania, priority 2008, published 2011).
Like-named read-outs stand apart in the source and are kept apart here.

Key:
Assay type in all cases: biochemical
Human liver cathepsin B = biological target: T1, Human liver cathepsin B (Homo sapiens, UniProt P07858); experiment: Cathepsin B assay, IC50 determination
T1 construct: Human liver cathepsin B (Calbiochem 219362, 65 ng/mL); purchased Calbiochem 219362; host or cells: human liver
Protocol: (§1) Human spleen cathepsin S (Calbiochem 219344, 40 ng/mL) was assayed using 15 microM Z-Phe-Arg-AMC substrate. Human liver cathepsin B (Calbiochem 219362, 65 ng/mL) was assayed using 15 microM Z-Arg-Arg-AMC substrate (Bachem I-1135). All reactions were performed in 20 mM sodium acetate buffer containing 1 mM EDTA and 5 mM cysteine, pH 5.5.
(§2) Compounds were serially diluted in DMSO and transferred into a 96-well Corning 3686 assay microplate to give a 16-point two-fold serial dilution dose response ranging from 25 microM to 760 pM. Human liver cathepsin L (Calbiochem 219402) was activated by incubating with assay buffer for 30 min. Upon activation, cathepsin L (300 pM, 8.7 ng/mL) was incubated with 1 microM Z-Phe-Arg-AMC substrate (Sigma C9521) and test compound in […] of assay buffer for 1 hour at room temperature. Fluorescence of AMC released by enzyme-catalyzed hydrolysis of Z-Phe-Arg-AMC was read on a PerkinElmer Envision microplate reader (excitation 355 nm, emission 460 nm). Data were scaled using internal controls and fitted to a four-parameter logistic model (IDBS XLfit equation 205) to obtain IC50 values in triplicate.
(§3) Compound No. 1 was assayed for inhibition against papain and cathepsins B, G, K, S, and V. Papain from Carica papaya (Calbiochem 5125, 11 ng/mL), human cathepsin K (Calbiochem 342001, 35 ng/mL), human spleen cathepsin S (Calbiochem 219344, 40 ng/mL), and human cathepsin V (Calbiochem 219467, 39 ng/ml) were assayed using Z-Phe-Arg-AMC substrate at 20 μM, 20 μM, 15 μM, and 1 μM, respectively. Human liver cathepsin B (Calbiochem 219362, 65 ng/mL) was assayed using 15 μM Z-Arg-Arg-AMC substrate (Bachem I-1135). Human neutrophil cathepsin G (Calbiochem 219373, 4.2 μg/mL) was assayed using 15 μM Suc-Ala-Ala-Pro-Phe-AMC substrate (Sigma S9761). All reactions were performed in 20 mM sodium acetate buffer containing 5 mM cysteine and 1 mM EDTA, pH 5.5. Reaction progress was monitored using the Envision microplate reader. IC50 values were measured in triplicate.

Human spleen cathepsin S = biological target: T2, Human spleen cathepsin S (Homo sapiens, UniProt P25774); experiment: Cathepsin S assay, IC50 determination
T2 construct: Human spleen cathepsin S (Calbiochem 219344, 40 ng/mL); purchased Calbiochem 219344; host or cells: human spleen
Protocol: as §1, §2, §3

human liver cathepsin L = biological target: T3, human liver cathepsin L (Homo sapiens, UniProt P07711); experiment: Cathepsin L assay, IC50 determination
T3 construct: 8.7 ng/mL human liver cathepsin L (Calbiochem 219402); purchased Calbiochem 219402; host or cells: human liver
Protocol: Assay buffer consisted of 20 mM sodium acetate, 1 mM ethylenediaminetetraacetic acid (EDTA) and 5 mM cysteine, pH 5.5. Cathepsin L was incubated in assay buffer for 30 minutes prior to dispensing into wells to allow for efficient reduction of the active site cysteine required for full enzymatic activity.
Upon activation, cathepsin L (300 pM, 8.7 ng/mL) was incubated with 1 microM Z-Phe-Arg-AMC substrate (Sigma C9521) and test compound in […] of assay buffer for 1 hour at room temperature.
All reactions were performed in 20 mM sodium acetate buffer containing 5 mM cysteine and 1 mM EDTA, pH 5.5. Reaction progress was monitored using the Envision microplate reader. IC50 values were measured in triplicate.

T2 sequence (P25774 115-331): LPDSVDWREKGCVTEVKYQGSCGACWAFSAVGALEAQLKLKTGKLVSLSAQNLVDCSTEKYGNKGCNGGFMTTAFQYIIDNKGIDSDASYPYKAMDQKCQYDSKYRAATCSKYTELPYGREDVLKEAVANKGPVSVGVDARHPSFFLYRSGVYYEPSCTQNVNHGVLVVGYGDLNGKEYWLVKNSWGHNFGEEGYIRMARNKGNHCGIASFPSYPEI
T3 sequence (P07711 114-288 limits assumed): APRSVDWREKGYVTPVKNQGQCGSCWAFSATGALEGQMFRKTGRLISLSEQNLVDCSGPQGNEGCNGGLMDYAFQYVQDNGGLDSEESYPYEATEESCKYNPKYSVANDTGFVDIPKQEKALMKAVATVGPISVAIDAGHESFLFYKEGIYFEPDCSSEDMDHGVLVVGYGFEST
T3 sequence (P07711 292-333 limits assumed): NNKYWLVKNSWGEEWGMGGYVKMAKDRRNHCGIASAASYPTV

SMILES | IC50 (Human liver cathepsin B; Table 1, read-out: IC50 Cat B) | IC50 (Human spleen cathepsin S; Table 1, read-out: IC50 Cat S) | IC50 (human liver cathepsin L; Table 1, read-out: IC50 Cat L) | IC50 (Human liver cathepsin B; Tables 2-11, read-out: Cat B) | IC50 (Human spleen cathepsin S; Tables 2-11, read-out: Cat S) | IC50 (human liver cathepsin L; Tables 2-11, read-out: Cat L) | IC50 (human liver cathepsin L; read-out: IC50 against cathepsin L)
CCc1ccccc1NC(=O)CSC(=O)NNC(=O)[C@H](CCCNC(=N)N[N+](=O)[O-])NC(=O)OC(C)(C)C [Compound No. 62] | > 25 µM | 2.15 µM | 3.67 µM | – | – | – | –
CC(C)(C)OC(=O)N[C@@H](Cc1c[nH]c2ccccc12)C(=O)NNC(=O)SCC(=O)N1CCOc2ccccc21 [Compound No. 10] | 3.23 µM | 0.95 µM | 0.22 µM | – | – | – | –
C[C@@H](CO)C(=O)NNC(=O)SCC(=O)N1CCCc2ccccc21 [Compound No. 70] | > 25 µM | > 25 µM | > 25 µM | – | – | – | –
CC(C)(C)OC(=O)N[C@@H](Cc1ccc(OCc2ccccc2)cc1)C(=O)NNC(=O)SCC(=O)N1CCc2ccccc21 [Compound No. 40] | 3.12 µM | 8 µM | 0.7 µM | – | – | – | –
CCc1ccccc1NC(=O)CSC(=O)NNC(=O)[C@@H]1CCCN1C(=O)OC(C)(C)C [Compound No. 32] | > 25 µM | > 25 µM | > 25 µM | – | – | – | –
CCc1ccccc1NCCSC(=O)NNC(=O)[C@H](CC(C)C)NC(=O)OC(C)(C)C [Compound No. 30] | > 25 µM | > 25 µM | > 25 µM | – | – | – | –
CC(C)(C)OC(=O)N[C@@H](COCc1ccccc1)C(=O)NNC(=O)SCC(=O)N1CCCc2ccccc21 [Compound No. 47] | 13.2 µM | 2.64 µM | 1.51 µM | – | – | – | –
CC(C)C[C@H](NC(=O)OC(C)(C)C)C(=O)NNC(=O)SCC(=O)N1CCCc2ccccc21 [Compound No. 31] | 2.72 µM | 1.64 µM | 1.64 µM | – | – | – | –
CC(C)(C)OC(=O)N[C@@H](Cc1c[nH]c2ccccc12)C(=O)NNC(=O)OCc1ccccc1 [Compound No. 94] | – | – | – | ≥ 25 µM | 4.1 µM | 0.806 µM | –
CC(C)[C@@H](CC(=O)NNC(=O)SCC(=O)N1CCCc2ccccc21)NC(=O)OC(C)(C)C [Compound No. 79] | 15.8 µM | > 25 µM | > 25 µM | – | – | – | –
CC(OCc1ccccc1)[C@H](NC(=O)OC(C)(C)C)C(=O)NNC(=O)SCC(=O)N1CCCc2ccccc21 (stereo partly shown) [Compound No. 45] | 4.35 µM | 5.15 µM | > 25 µM | – | – | – | –
CC(C)(C)OC(=O)N[C@@H](Cc1ccc(OCc2ccccc2)cc1)C(=O)NNC(=O)SCC(=O)Nc1ccccc1[N+](=O)[O-] [Compound No. 38] | 2.77 µM | 2.08 µM | 0.59 µM | – | – | – | –
CC(C)(C)OC(=O)N[C@@H](Cc1c[nH]c2ccccc12)C(=O)NNC(=O)SC1CCN(c2ccccc2)C1=O (stereo partly shown) [Compound No. 14] | 14 µM | 2.07 µM | 1.05 µM | – | – | – | –
CSCC[C@@H](CC(=O)NNC(=O)SCC(=O)N1CCCc2ccccc21)NC(=O)OC(C)(C)C [Compound No. 77] | > 25 µM | 3.01 µM | 6.95 µM | – | – | – | –
CCc1ccccc1NC(=O)CCC(=O)NNC(=O)[C@H](Cc1c[nH]c2ccccc12)NC(=O)OC(C)(C)C [Compound No. 113] | – | – | – | ≥ 25 µM | ≥ 25 µM | ≥ 25 µM | –
CC(C)(C)OC(=O)N[C@@H](COCc1ccccc1)C(=O)NNC(=O)SCC(=O)NCCc1ccccc1 [Compound No. 51] | > 25 µM | 0.65 µM | 0.51 µM | – | – | – | –
C/C=C(/C=O)[C@@H](CC=O)CC(=O)OCCc1ccc(O)cc1 [Compound No. 121] | – | – | – | ≥ 25 µM | ≥ 25 µM | ≥ 25 µM | –
C[C@H](CO)C(=O)NNC(=O)SCC(=O)N1CCCc2ccccc21 [Compound No. 68] | > 25 µM | > 25 µM | > 25 µM | – | – | – | –
CCc1ccccc1NC(=O)CSC(=O)NNC(=O)[C@@H](Cc1c[nH]c2ccccc12)NC(=O)OC(C)(C)C [R-enantiomer of Compound No. 1] | – | – | – | – | – | – | 34 µM
